What was measured:
[1] = test system: Ba/F3-EML4-ALK-G1202R/L1196M; experiment: Anti-proliferative activity test on Ba/F3 cell lines (CellTiter-Glo); assay type: cell-based; conditions: Ba/F3 EML4-ALK-G1202R-L1196M; 72 hours; read-out: Half maximal inhibitory concentration IC50 for cells Ba/F3-EML4-ALK-G1202R/L1196 M
Procedure, shortened: (§1)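 Cells (2000/well) were exposed for 72 h at 37°C, 5% CO2, to an 8-point 3-fold series (1000× plate starting at 1 µM), with 0.1% DMSO final. Viability was read by CellTiter-Glo luminescence. Inhibition was normalised to DMSO (Max) and cell-free (Min) controls, and IC50 was taken from the curves.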

[2] = test system: Ba/F3-TEL-TRKB; experiment: as above; assay type: cell-based; conditions: Mus musculus, BaF3; 72 hours; read-out: Half maximal inhibitory concentration IC50 for cells Ba/F3-TEL-TRKB
Procedure, shortened: as §1

[3] = target: T1, CYP3A4-M (Homo sapiens, UniProt P08684); experiment: Cytochrome P450 isozyme inhibitory activity test (human liver microsomes); assay type: in vitro ADME; conditions: human liver microsomes 0.1 mg/mL
T1 construct: Mixed human liver microsomes (HLM) purchased from Corning Inc; tissue Corning Inc; host or cells: pooled human liver microsomes
T1 sequence (P08684 whole entry): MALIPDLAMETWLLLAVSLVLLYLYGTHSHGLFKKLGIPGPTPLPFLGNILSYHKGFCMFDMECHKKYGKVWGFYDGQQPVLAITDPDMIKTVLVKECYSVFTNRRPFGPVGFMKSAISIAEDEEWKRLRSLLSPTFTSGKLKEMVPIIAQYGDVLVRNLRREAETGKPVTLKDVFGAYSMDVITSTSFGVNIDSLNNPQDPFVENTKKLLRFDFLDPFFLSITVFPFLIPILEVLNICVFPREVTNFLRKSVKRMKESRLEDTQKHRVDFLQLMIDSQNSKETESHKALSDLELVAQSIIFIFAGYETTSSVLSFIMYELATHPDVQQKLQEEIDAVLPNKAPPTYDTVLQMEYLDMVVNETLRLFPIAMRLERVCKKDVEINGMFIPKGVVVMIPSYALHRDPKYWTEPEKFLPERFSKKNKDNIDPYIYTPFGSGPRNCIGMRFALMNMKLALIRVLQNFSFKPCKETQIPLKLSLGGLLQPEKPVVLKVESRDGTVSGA

Cc1nn2cc3c4nc2c1C(=O)NC1(CC1)COc1ccc(F)cc1CN4[C@H](C(F)F)CO3 [Compound 016]
IC50 [1]: 12.5 nM | IC50 [2]: 0.6 nM | IC50 [3]: > 50000 nM
